These are literature values, as cited in publication PMC9147442, “Design, Synthesis, and Evaluation of Linker-Optimised PSMA-Targeting Radioligands” (Pharmaceutics, 2022).

On the set-up of this series: method as in PMID 26985056. The following applies: radiotherapy.

On to [^177Lu]Lu-PSMA-617, for which the renal excretion is ~ 50 % IA.
